According to PubChem BioAssay (NCI):
“And” between values parts separate entries of the source, which are not always exact repeats. Identical values can stand only once.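 The compound was tested at five concentrations on cells cultured in 96-well plates, with a 48-hour exposure period. GI50 marks 50% less growth. TGI marks complete inhibition of growth.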

Columns and labels:
Test in all cases: NCI anticancer screen, dose series, 48 h
[1] = test system: A498 renal
[2] = test system: DU-145 prostate
[3] = test system: HOP-62 NSCLC
[4] = test system: MALME-3M melanoma
[5] = test system: MDA-MB-435
[6] = test system: OVCAR-4 ovarian
[7] = test system: OVCAR-8 ovarian
[8] = test system: SF-539 CNS
[9] = test system: SK-MEL-5 melanoma
[10] = test system: T-47D breast

Structure (SMILES)	GI50 [1]	TGI [1]	GI50 [2]	TGI [2]	GI50 [3]	TGI [3]	GI50 [4]	TGI [4]	GI50 [5]	TGI [5]	GI50 [6]	TGI [6]	GI50 [7]	TGI [7] [µM]	GI50 [8]	TGI [8]	GI50 [9]	TGI [9]	GI50 [10]	TGI [10]
COc1cc(C(=O)n2nc(N)c3c(C)cc(C)nc32)cc(OC)c1OC	> 20.8 µM	> 100 µM	> 100 µM	> 100 µM	40.8 µM	> 100 µM	> 100 µM	> 100 µM	0.325 µM	6.01 µM	> 100 µM	> 100 µM	> 100 µM	> 100	> 23.4 µM	> 100 µM	35.2 µM	> 100 µM	> 65.4 µM	> 100 µM
COc1ccc2c(c1)nnc1c3cccnc3[nH]c21	8 µM and 2.48 µM	19.2 µM and 21.3 µM	1.88 µM and 1.04 µM	12.9 µM and 4.46 µM	5.47 µM and 26 µM	16.1 µM and > 100 µM	1.06 µM and 0.926 µM	4.63 µM and 4.18 µM	1.44 µM and 1.52 µM	9.43 µM and 12.3 µM	1.41 µM and 2.58 µM	16.2 µM and > 100 µM	0.619 µM and 0.376 µM	–	0.642 µM and 0.428 µM	1.62 µM and 1.87 µM	5.85 µM and 4.04 µM	12.6 µM and 18.9 µM	0.492 µM and 0.224 µM	2.61 µM and 4.21 µM
COc1cc(C2NC(=O)C(C#N)=C(Nc3cccc(C)c3)S2)ccc1O (centres undefined)	> 100 µM	> 100 µM	> 100 µM	> 100 µM	> 100 µM	> 100 µM	> 100 µM	> 100 µM	> 100 µM	> 100 µM	> 100 µM	> 100 µM	> 100 µM	> 100	> 100 µM	> 100 µM	> 100 µM	> 100 µM	> 100 µM	> 100 µM
COc1ccc(-c2[nH]ncc2Nc2cc(OC)c(OC)c(OC)c2)cc1	2.98 µM	> 57.4 µM	4 µM	64.1 µM	3.32 µM	> 95.3 µM	2.04 µM	> 26.1 µM	0.177 µM	0.395 µM	5.01 µM	> 100 µM	6.36 µM	> 100	–	–	1.34 µM	23 µM	4.07 µM	> 100 µM
COC(=O)c1cc2cc(/C=C3/SC(=S)N(N(C(C)=O)C(C)=O)C3=O)oc2n1Cc1ccccc1	–	–	20.7 µM	73.4 µM	2.67 µM	14.1 µM	–	–	29 µM	> 100 µM	38.2 µM	> 100 µM	18.3 µM	42.8	20.4 µM	39.3 µM	25.7 µM	62.7 µM	> 100 µM	> 100 µM
CCOCCOCCOCCOCCOCCOCCOCCOCCOCCO (tested in a mixture with another compound)	1.08 µM	19.1 µM	2.6 µM	15.2 µM	1.07 µM	4.45 µM	3.65 µM	9.23 µM	1.45 µM	–	0.717 µM	2.84 µM	0.871 µM	4.36	–	–	0.586 µM	1.81 µM	1.12 µM	7.16 µM
O=C(C(=CN1CCN(C(=O)c2ccco2)C1=S)C(=O)c1ccccc1)c1ccccc1	–	–	12.4 µM	> 50 µM	15.9 µM	44.2 µM	3.05 µM	43.3 µM	7.24 µM	18.7 µM	16.1 µM	42.8 µM	16.2 µM	41.4	–	–	10.9 µM	19.5 µM	> 50 µM	> 50 µM
N#CC1=C(N)OC2=C(CCOc3c2ccc2ccccc32)C1c1ccc(Br)cc1 (centres undefined)	–	–	> 100 µM	> 100 µM	56.6 µM	> 100 µM	15.3 µM	57.7 µM	16 µM	61.2 µM	27.1 µM	> 100 µM	77.5 µM	> 100	> 100 µM	> 100 µM	–	–	> 100 µM	> 100 µM
Cc1c(-c2ccccn2)ccc2ccccc12	–	> 100 µM	–	> 100 µM	–	> 100 µM	–	> 100 µM	–	> 100 µM	–	–	–	> 100	–	> 100 µM	–	> 100 µM	–	> 100 µM
CN1CCN(c2ccc(NC3=CC(=O)c4ncncc4C3=O)cc2)CC1	1.42 µM	2.8 µM	0.639 µM	1.88 µM	–	–	0.268 µM	0.713 µM	0.191 µM	0.35 µM	0.147 µM	0.28 µM	0.323 µM	1.57	0.612 µM	1.69 µM	0.302 µM	0.871 µM	0.231 µM	0.651 µM
O=C(NCCNCCO)c1ccc(Nc2nc3ccccc3c3occc23)cc1	18.3 µM	39.4 µM	14.9 µM	30.7 µM	12.2 µM	24.9 µM	–	–	7.29 µM	22 µM	24 µM	> 100 µM	2.61 µM	16.2	12.6 µM	29.4 µM	18.4 µM	35.2 µM	25.8 µM	90.2 µM
Clc1ccc(-c2nc(NCc3ccco3)c3ccccc3n2)c(Cl)c1	22 µM	41 µM	8.38 µM	29.6 µM	15.8 µM	34.7 µM	12.9 µM	32.4 µM	16.1 µM	33.7 µM	43.3 µM	> 100 µM	24.2 µM	82.7	–	–	13.9 µM	30 µM	45.6 µM	> 100 µM
COc1cc(C(=O)O[C@H](C(=O)NCCCCNC(=O)[C@@H](OC(=O)c2cc(OC)cc3c(C)cccc23)[C@]2(C)CO2)[C@]2(C)CO2)c2cccc(C)c2c1	2.46 µM	5.16 µM	–	0.352 µM	–	0.892 µM	–	–	0.144 µM	0.61 µM	0.218 µM	2.08 µM	0.0192 µM	0.206	< 0.0385 µM	0.266 µM	0.0203 µM	0.233 µM	0.253 µM	1.74 µM
CCCCCCCCN=C(NCCCCCCCC)SCc1cccc2ccccc12	1.52 µM	2.9 µM	1.8 µM	3.29 µM	1.71 µM	3.13 µM	1.46 µM	3.68 µM	1.58 µM	3.03 µM	1.32 µM	2.64 µM	1.64 µM	3.11	–	–	1.47 µM	2.8 µM	1.55 µM	3.01 µM
